Experimental data: patent publication US20240325327A1, “METHOD FOR ATTENUATING NEUROINFLAMMATION, AMYLOIDOPATHY AND TAUOPATHY” (Trustees of Dartmouth College, priority 2023, published 2024)
Blank lines part the entries; values can stand above or below the compound they belong to.

How the values were obtained:
ACAT2 [1] = target: T1, ACAT2 (Homo sapiens, UniProt O75908); parameters: IC50 ACAT2; details: cited from earlier work
T1 sequence (O75908 1-522): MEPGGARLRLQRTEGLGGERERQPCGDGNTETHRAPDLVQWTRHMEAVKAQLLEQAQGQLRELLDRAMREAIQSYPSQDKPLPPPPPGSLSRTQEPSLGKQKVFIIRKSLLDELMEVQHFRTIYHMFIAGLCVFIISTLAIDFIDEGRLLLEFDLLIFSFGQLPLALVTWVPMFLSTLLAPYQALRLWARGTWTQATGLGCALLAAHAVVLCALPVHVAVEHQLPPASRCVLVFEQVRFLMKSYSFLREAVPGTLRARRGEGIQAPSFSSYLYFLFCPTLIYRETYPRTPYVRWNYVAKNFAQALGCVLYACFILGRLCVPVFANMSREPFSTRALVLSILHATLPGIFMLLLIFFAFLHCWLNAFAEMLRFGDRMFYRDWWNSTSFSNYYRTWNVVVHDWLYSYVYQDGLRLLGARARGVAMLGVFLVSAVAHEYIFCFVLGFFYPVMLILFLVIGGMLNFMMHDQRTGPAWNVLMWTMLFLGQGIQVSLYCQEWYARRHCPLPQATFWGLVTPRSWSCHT

human ACAT1 [2] = target: T2, human ACAT1 (Homo sapiens, UniProt P35610); assay: mixed liposome ACAT1 assay
T2 sequence (P35610 1-550): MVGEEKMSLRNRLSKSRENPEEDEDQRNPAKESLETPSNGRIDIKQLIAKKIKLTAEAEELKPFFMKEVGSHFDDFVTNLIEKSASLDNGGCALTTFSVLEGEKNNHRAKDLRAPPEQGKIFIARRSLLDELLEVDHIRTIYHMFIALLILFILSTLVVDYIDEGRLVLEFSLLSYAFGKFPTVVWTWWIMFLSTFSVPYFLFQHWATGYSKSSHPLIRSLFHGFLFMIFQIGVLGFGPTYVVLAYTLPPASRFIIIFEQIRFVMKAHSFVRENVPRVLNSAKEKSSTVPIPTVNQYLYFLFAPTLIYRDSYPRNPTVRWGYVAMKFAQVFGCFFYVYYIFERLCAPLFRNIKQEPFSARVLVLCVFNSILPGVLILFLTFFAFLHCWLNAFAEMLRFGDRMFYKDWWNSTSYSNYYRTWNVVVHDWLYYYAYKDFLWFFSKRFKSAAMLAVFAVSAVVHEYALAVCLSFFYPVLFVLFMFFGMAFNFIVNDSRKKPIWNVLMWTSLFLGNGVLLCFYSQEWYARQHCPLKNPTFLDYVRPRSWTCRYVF
Method: In vitro Mixed Liposomal ACAT Activity Assay. […] Lysed cells were collected and aliquoted into pre-chilled tubes containing the liposomal mixture of taurocholate, phosphatidylcholine, and cholesterol. Tubes were vortexed and kept on ice for 5 minutes. Samples were then incubated in a 37° C. shaking water bath with ^3H-oleoyl CoA added for 10 minutes. The assay was stopped by adding CHCl3:MeOH (2:1). Lipids were extracted and analyzed by the same TLC method described herein.

IL-4Rα [3] = assay: IL-4Rα expression in HMC3 microglia (western blot); format: cell-based, human; details: for IL-4Rα protein content: human myelin debris-treated HMC3 cells, 48 hours co-incubation
Method: (§1) IL-4Rα expression was determined by convention methods. 25 μg/mL cholesterol equals 38 μg/mL total myelin debris protein. Data are expressed as mean±SEM. *P<0.05; **P<0.01.
[…] Protein was isolated and analyzed by western blot analysis. Vinculin was the loading control. […] Data are expressed as mean±SEM. *P<0.05; **P<0.01.
(§2) Subsequently, myelin debris from human brains was prepared and it was observed that the cholesterol/protein ratio, as well as the protein composition between mouse myelin debris and human myelin debris, were very similar.

ABCA1 = ABCA1 protein content in human myelin debris-treated HMC3 cells; format: cell-based; details: human myelin debris at 25 μg/mL cholesterol, 0.5 μM inhibitor, 24 hours
Method: Afterward, cells were harvested for western blot analyses. Lysates of HEK293 cells and lysates of HMC3 cells treated with 10 μM LXR agonist T0901317 for 24 hours were respectively used as negative and positive controls for ABCA1 signals. […] Data are expressed as mean±SEM.
as §2

N9 microglial cells = assay: inflammatory responses to LPS in N9 microglial cells (qPCR, IκB-α western blot); format: cell-based, mouse; details: 0.5 μM for 4 hours, then 10, 100 or 1000 ng/mL LPS
Method: Cells were seeded at 1×10^5/well onto 12-well plates in RPMI-1640 with 10% bovine calf serum. […] Six hours later, mRNA was extracted, and qPCR was performed to monitor pro-inflammatory (FIG. 5A) or anti-inflammatory (FIG. 5B) gene expression. […] Thirty minutes later, proteins were extracted for western blot analysis for total IκB-α, and for phosphorylated IκB-α (p-IκB-α). *P<0.05; ** P<0.01.
It has now been shown that, in microglia, genetic inactivation of Acat1 suppresses certain pro-inflammatory response genes (FIG. 4A and FIG. 4C, e.g., IL-1β, iNOS, MCP1, Cxc19, Cxc110 and IL-6) and induces certain anti-inflammatory response genes (FIG. 4B and FIG. 4D, e.g., YM1) in the hippocampus (FIG. 4A and FIG. 4B) and cortex (FIG. 4C and FIG. 4D).

IL-4Rα [4] = assay: IL-4Rα expression in N9 microglia (immunoblot); format: cell-based, mouse
Method: Cells were harvested for immunoblot analysis for IL-4Rα. Vinculin was the loading control. Data expressed as mean+/−SEM, * p<0.05, ** p<0.01.
as §1
In microglia, various cholesterol-rich agents including myelin debris and damaged cell membranes enter the cells. […] In addition, the effects of ACAT1 blockade were tested in N9 and the human microglia-like cell line HMC3, which both express normal TREM-2 receptors.

ACAT1 = ACAT1 inhibition, literature values; format: biochemical, human; details: ratio of IC50 values ACAT2/ACAT1
Source text: Cholesterol is stored as cholesteryl esters. For cholesterol esterification, there are two Acyl-CoA:Cholesterol Acyltransferase (ACAT) genes, SOAT1 and SOAT2, encoding two homologous but distinct enzymes, ACAT1 and ACAT2. Both enzymes use long-chain fatty acyl-CoAs and sterols with 3-beta-OH, including cholesterol and various oxysterols as their substrates. ACAT1 is the major cholesterol storage enzyme in the brain.
Biophys. Res. Comm. […] Here, the ACAT activity was monitored using the ACAT enzyme assay in vitro.

human ACAT1 [5] = target: T2, human ACAT1; details: cited from earlier work
[6] = test system: mouse model for Alzheimer's Disease; details: in vivo; cited from earlier work
ACAT2 [7] = target: T1, ACAT2; details: at 1 mM; cited from earlier work

Compound: CCCCCCCC(=O)Nc1ccccc1-c1ccccc1 [compound 1]
- IC50 (ACAT2 [1]): 230 µM

- EC50 (human ACAT1 [2]): 0.0058 µM
- potency relative to F12511 as ACAT1 inhibitor (human ACAT1 [2]; ratio of EC50 values): ~7 times
Compound: CCCCCCCCCCCCS(=O)(=O)[C@](F)(C(=O)Nc1cc(C)c(O)c(C)c1C)c1ccccc1 [F26]

Compound: CCCCCCCCCCCCS[C@H](C(=O)Nc1cc(C)c(O)c(C)c1C)c1ccccc1 [F12511]
- IL-4Rα protein content (IL-4Rα [3]): IL-4Rα protein content increases
- ABCA1 protein content (ABCA1): increased significantly
- IC50 (ACAT2 [1]): 0.11 µM

Compound: CSc1cc(C)nc(SC)c1NC(=O)CN1CCN(CCSc2nc3ccccc3[nH]2)CC1 [K-604]
- inflammatory responses to LPS (N9 microglial cells): attenuates inflammatory responses to LPS
- IL-4Rα expression (IL-4Rα [4]; N9 cells, 0.5 μM for 4 or 12 hours): increases expression of the receptor IL-4Rα
- IL-4Rα expression (IL-4Rα [4]; mouse myelin debris-treated N9 cells, 21 hours): upregulates IL-4Rα expression
- IL-4Rα protein content (IL-4Rα [3]): IL-4Rα protein content increases
- IL-4Rα expression (IL-4Rα [3]; mouse myelin debris-treated HMC3 cells, 21 hours): upregulates IL-4Rα expression
- ABCA1 protein content (ABCA1): increased significantly

Compound: CCCCCCCCC(=O)Nc1ccccc1-c1ccccc1 [compound 2]
- IC50 (ACAT2 [1]): 414 µM

Compound: CCOC(=O)OC(=O)OCC [diethyl pyrocarbonate]
- selectivity for ACAT1 over ACAT2 (ACAT1): 4 fold
- IC50 (human ACAT1 [5]): 44 µM
- IC50 (ACAT2 [1]): 170 µM

Compound: CC(C)c1cc(C(C)C)c(CC(=O)NS(=O)(=O)Oc2c(C(C)C)cccc2C(C)C)c(C(C)C)c1 [CI 1011]
- amyloidopathy / cognitive deficits in mouse model for AD [6]: reduce amyloidopathy

Compound: CCCCCCCC(=O)Nc1cc(-c2ccccc2)nn1-c1ccccc1 [compound 13]
- IC50 (ACAT2 [1]): 53 µM

Compound: CCCCCCCCCNc1cc(-c2ccccc2)nn1-c1ccccc1 [compound 16]
- IC50 (ACAT2 [1]): 97 µM

Compound: CCCCCCCCC(=O)Nc1cc(-c2ccccc2)nn1-c1ccccc1 [compound 14]
- IC50 (ACAT2 [1]): 75 µM

Compound: CCCC[C@H](C)[C@@H]1CC(=O)N[C@@H](Cc2ccccc2)C(=O)N[C@@H](C)C(=O)N[C@H](CC(C)C)C(=O)O1 [Beauveriolide I]
- IC50 (ACAT2 [1]): 20 µM

Compound: CC(C)c1cccc(C(C)C)c1NC(=O)CC(=O)C(Cc1ccccc1)Cc1ccc(O)cc1 (centres unmarked) [Compound 1B]
- IC50 (ACAT2 [1]): 1.5 µM

Compound: Saucerneol B
- IC50 (ACAT2 [1]): 124 µM

Compound: COc1ccc([C@@H](O)[C@@H](C)Oc2ccc([C@H]3O[C@H](c4ccc(O[C@H](C)[C@H](O)c5ccc6c(c5)OCO6)c(OC)c4)[C@H](C)[C@H]3C)cc2OC)cc1OC [manassantin B]
- inhibition of hACAT-2 (ACAT2 [7]): 32%

Compound: CC(C)c1cccc(C(C)C)c1NC(=O)CC(=O)C(Cc1ccccc1)Cc1ccc(OC(=O)CCCCCCN2CCCCCC2=O)cc1 (centres unmarked) [Compound 1C]
- IC50 (ACAT2 [1]): 0.53 µM

Compound: CCCCCCCC[C@H](SCCCCCC)C(=O)Nc1c(SC)cc(C)nc1SC [CP113,818]
- amyloidopathy / cognitive deficits in mouse model for AD [6]: reduce amyloidopathy and rescue cognitive deficits
